# Tested on: neuronal cells
# Experiment: Intracellular calcium level [Ca2+]i in primary neurons (Fura-2 fluorescence ratio 340/380 nm)
# Type: cell-based, rat
# From the text: Material: The same materials as described in Perovic et al. (1998, Mech. Ageing Dev. 101:1-19) were used. Fura-2-acetoxymethylester (Fura-2-AM) was obtained from Molecular Probes (Leiden, The Netherlands), Dulbecco's modified Eagle's Medium with 4.5 g/L glucose (DMEM/HG), L-glutamic acid (L-Glu), and serotonin (5-HT) from Sigma-Aldrich (Taufkirchen, Germany) and the antibodies mouse-anti-neurofilament (68 kDa) and mouse-anti-glial-fibrillary-acidic-protein (GFAP) from Roche Diagnostics (Mannheim, Germany). Sorbicillactone A of the batch: 2208/2a was used.
# Primary neurons: The cortical cell culture was produced from the brains of 17-18 day-old rat embryos, according to a modified procedure [Freshney (1987) Culture of specific cell types. In: Culture of Animal Cells. A Manual of Basic Technique, A. R. Liss, New York, S. 257-288; Perovic et al. (1994) Eur. J. Pharmacol. (Mol. Pharmacol. Sec.) 288:27-33]. After the isolation, the cerebral-hemispheres were put into Hank's Balanced Salt Solution (HBSS) without Ca^2+ and Mg^2+, and the neuronal cells were subsequently dissociated in HBSS using 0.025% (w/v) trypsin (10 min.; 37° C.). The proteolytic reaction was stopped with 10% (v/v) foetal calf serum (FCS). The single-cell suspensions were centrifuged, and the resulting pellet was taken up into Dulbecco's modified Eagles's Medium with 4.5 g/L glucose (DMEM/HG) (contains 2 mM L-glutamine, 100 mU/L insulin, and 10% (v/v) FCS). The cells were plated in a chamber with poly-L-lysine (5 μg/mL, 300 μl/cm^2) in a cell density of 2.0×10^5 cells/cm^2. After two days the DMEM/HG/10%-FCS-medium was removed and replaced with DMEM/HG/serum-free medium. Two weeks after the isolation, the immune staining took place with anti-neurofilament (68 kDa) as a marker for neurons, and anti-GFAP as a marker for glial cells. The cultures contained >80% neurons; the residual 20% were GFAP-positive cells, mainly astrocytes (Ushijima et al. (1995) Eur. J. Neurosci. 7:1353-9). The neurons were held in an atmosphere of 95% air and 5% CO2 at 37° C.
# Loading of neurons with Fura-2-AM: The intracellular Ca^2+-concentration ([Ca^2+]i) was determined by fluorescence measurements. The ratio of the absorption of the Ca^2+-indicator dye Fura-2-AM at 340 and 380 nm (Grynkiewicz et al. (1985) J. Biol. Chem. 260:3440-50) was decisive. The neurons were loaded with 6 μM Fura-2-AM in DMEM/HG/serum-free medium (supplemented with 1% (w/v) bovine serum albumin) at 37° C. for 60 min. After incubation, the cells were washed two times with medium, and further incubated for 45 min at 37° C.
# Calcium-calibration curve: A calcium-calibration curve was produced according to the methods of Grynkiewicz et al. (1985, J. Biol. Chem. 260:3440-50). Fluorescence pictures were obtained for each buffer at 340 and 380 nm. The quotient from both fluorescence spectra (340/380 nm) was calculated, and depicted as a calibration curve. The quotient (340/380 nm [ratio-value]) of 1.0 corresponds to 228 nM [Ca^2+]i.
# Changes of the calcium level in neurons: In all experimental settings, the cells were first loaded with Fura-2-AM, and subsequently stimulated with different substances (in Locke's solution; 154 mM NaCl; 5.6 mM KCl; 3.6 mM NaHCO3; 5.6 mM glucose, and 10 mM Hepes; pH 7.4; without CaCl2). Sorbicillactone A was dissolved in a concentration of 10 mg/mL in 100% (v/v) DMSO, and stored at −20° C. In the first setting, the neurons were stimulated for 5 min with 0.1% (v/v) DMSO (control); after 10 min 200 μM L-glutamic acid (L-Glu), 200 μM serotonin (5-HT), and 2.5 mM CaCl2 were added to the cells. In a second setting, the effect of L-Glu, 5-HT, and 2.5 mM CaCl2 on the calcium level of pre-incubated neurons (each 5 min with 10 μg/mL sorbicillactone A) was tested. In all experiments, the [Ca^2+]i-level was measured for at least 20-25 min. […]
smiles,measurement,setting,value
C/C=C/C=C/C(O)=C1/C(=O)C(C)=C(O)[C@@]2(C)OC(=O)[C@@](C)(NC(=O)/C=C/C(=O)O)[C@@H]12 [sorbicillactone A],effect on [Ca2+]i in neuronal cells,10 μg/mL sorbicillactone A alone,nearly no effect
same,reduction in the [Ca2+]i-level,"pre-incubation 5 min with 10 μg/mL, then 200 μM L-Glu and 2.5 mM CaCl2, p<0.001, FIG. 1A",46.7%
same,reduction of the free calcium concentration compared to the control,"pre-incubation with 10 μg/mL, then 200 μM 5-HT and 2.5 mM CaCl2, FIG. 1B",77.6%

# From patent publication US20070135515A1, “Method for producing sorbicillactone a” (priority 2004, published 2007)
